The target in this assay is T1, Recombinant Human Histamine H4 Receptor (Homo sapiens, UniProt Q9H3N8).
T1 construct: expressed in transfected cells; host or cells: SK-N-MC cells or COS7 cells, transiently transfected; cell membranes used
T1 sequence (Q9H3N8 whole entry): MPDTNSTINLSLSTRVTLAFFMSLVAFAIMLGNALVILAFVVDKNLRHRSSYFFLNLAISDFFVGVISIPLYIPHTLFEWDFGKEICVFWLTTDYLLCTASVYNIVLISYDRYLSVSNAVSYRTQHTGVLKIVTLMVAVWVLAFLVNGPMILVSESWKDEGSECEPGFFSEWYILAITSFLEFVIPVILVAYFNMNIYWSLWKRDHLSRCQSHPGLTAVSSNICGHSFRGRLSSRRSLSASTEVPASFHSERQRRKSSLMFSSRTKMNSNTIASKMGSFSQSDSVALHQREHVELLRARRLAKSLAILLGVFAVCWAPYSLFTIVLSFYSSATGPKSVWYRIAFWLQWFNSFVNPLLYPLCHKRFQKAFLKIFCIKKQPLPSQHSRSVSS
The assay can be described thus: Binding Assay on Recombinant Human Histamine H4 Receptor. The note with it: competition binding with 3H-histamine, membranes of SK-N-MC or COS7 cells expressing human histamine H4 receptor; Ki by Cheng-Prusoff (KD 5 nM, ligand 5 nM); average of results obtained. The source says: Additional examples of embodiments of this invention are provided by hemitartrate salts of compounds of Formula (I) and by hydrates, such as monohydrates and dihydrates, of compounds of Formula (I). […]
Take `Cc1nc(NCCCC2CCN(C)CC2)ncc1-c1nc2c(C(F)(F)F)cc(C(F)(F)F)cc2[nH]1` [Example 35, [5-(4,6-Bis-trifluoromethyl-1H-benzoimidazol-2-yl)-4-methyl-pyrimidin-2-yl]-[3-(1-methyl-piperidin-4-yl)-propyl]-amine]: the Ki worked out at 11 nM. For `Cc1cc(F)cc2[nH]c(-c3cnc(NCCCC4CCN(C)CC4)nc3C3CC3)nc12` [Example 46, [4-Cyclopropyl-5-(6-fluoro-4-methyl-1H-benzoimidazol-2-yl)-pyrimidin-2-yl]-[3-(1-methyl-piperidin-4-yl)-propyl]-amine], the Ki was 230 nM. As for `Cc1nc(NCCCC2CCN(C)CC2)ncc1-c1nc2cc(C#N)ccc2[nH]1` [Example 36, 2-{4-Methyl-2-[3-(1-methyl-piperidin-4-yl)-propylamino]-pyrimidin-5-yl}-1H-benzoimidazole-5-carbonitrile], the Ki was 170 nM. On to `Cc1ccc2[nH]c(-c3cnc(NCCCC4CCN(C)CC4)cn3)nc2c1C` [Example 34, [5-(4,5-Dimethyl-1H-benzoimidazol-2-yl)-pyrazin-2-yl]-[3-(1-methyl-piperidin-4-yl)-propyl]-amine], for which the Ki amounted to 680 nM. Then `Cc1cc(C)c2nc(-c3cnc(NCCCC4CCN(C)CC4)nc3C)[nH]c2c1` [Example 2, [5-(4,6-Dimethyl-1H-benzoimidazol-2-yl)-4-methyl-pyrimidin-2-yl]-[3-(1-methyl-piperidin-4-yl)-propyl]-amine], with 11 nM; and `Cc1c(F)ccc2[nH]c(-c3cnc(NCCCC4CCN(C)CC4)nc3)nc12` [Example 15, [5-(5-Fluoro-4-methyl-1H-benzoimidazol-2-yl)-pyrimidin-2-yl]-[3-(1-methyl-piperidin-4-yl)-propyl]-amine], with 290 nM; and `Cc1ccc2[nH]c(-c3cnc(NCCCC4CCN(C)CC4)nc3C3CC3)nc2c1C` [Example 45, [4-Cyclopropyl-5-(4,5-dimethyl-1H-benzoimidazol-2-yl)-pyrimidin-2-yl]-[3-(1-methyl-piperidin-4-yl)-propyl]-amine], with 390 nM. Then `Cc1cc(C)c2nc(-c3cnc(NCCCC4CCN(C)CC4)nc3C(C)C)[nH]c2c1` [Example 12, [5-(4,6-Dimethyl-1H-benzoimidazol-2-yl)-4-isopropyl-pyrimidin-2-yl]-[3-(1-methyl-piperidin-4-yl)-propyl]-amine], with 200 nM; and `Cc1nc(NCCCC2CCN(C)CC2)ncc1-c1nc2cc(F)ccc2[nH]1` [Example 23, [5-(5-Fluoro-1H-benzoimidazol-2-yl)-4-methyl-pyrimidin-2-yl]-[3-(1-methyl-piperidin-4-yl)-propyl]-amine], with 59 nM.

As to `Cc1nc(NCCCC2CCN(C)CC2)ncc1-c1nc2c(C)c(F)ccc2[nH]1` [Example 1, [5-(5-Fluoro-4-methyl-1H-benzoimidazol-2-yl)-4-methyl-pyrimidin-2-yl]-[3-(1-methyl-piperidin-4-yl)-propyl]-amine], the Ki is 21 nM.

As to `Cc1nc(NCCCC2CCN(C)CC2)ncc1-c1nc2c(C)cccc2[nH]1` [Example 21, [4-Methyl-5-(4-methyl-1H-benzoimidazol-2-yl)-pyrimidin-2-yl]-[3-(1-methyl-piperidin-4-yl)-propyl]-amine], the Ki amounted to 27 nM.

On to `CCCc1nc(NCCCC2CCN(C)CC2)ncc1-c1nc2c(F)c(C)ccc2[nH]1` [Example 10, [5-(4-Fluoro-5-methyl-1H-benzoimidazol-2-yl)-4-propyl-pyrimidin-2-yl]-[3-(1-methyl-piperidin-4-yl)-propyl]-amine], for which the Ki was determined as 470 nM. For `Cc1cc(C)c2nc(-c3cnc(NCCCC4CCN(C)CC4)nc3C3CCC3)[nH]c2c1` [Example 17, [4-Cyclobutyl-5-(4,6-dimethyl-1H-benzoimidazol-2-yl)-pyrimidin-2-yl]-[3-(1-methyl-piperidin-4-yl)-propyl]-amine], the inhibition constant Ki came out at 1320 nM. On to `Cc1nc(NCCCC2CCN(C)CC2)ncc1-c1nc2cc(Cl)c(F)cc2[nH]1` [Example 39, [5-(5-Chloro-6-fluoro-1H-benzoimidazol-2-yl)-4-methyl-pyrimidin-2-yl]-[3-(1-methyl-piperidin-4-yl)-propyl]-amine], for which the Ki amounted to 15 nM. Then `Cc1nc(NCCCC2CCN(C)CC2)ncc1-c1nc2c(Cl)cc(C(F)(F)F)cc2[nH]1` [Example 38, [5-(4-Chloro-6-trifluoromethyl-1H-benzoimidazol-2-yl)-4-methyl-pyrimidin-2-yl]-[3-(1-methyl-piperidin-4-yl)-propyl]-amine], with 2 nM. `Cc1c(F)ccc2[nH]c(-c3cnc(NCCCC4CCN(C)CC4)nc3C(F)(F)F)nc12` [Example 27, [5-(5-Fluoro-4-methyl-1H-benzoimidazol-2-yl)-4-trifluoromethyl-pyrimidin-2-yl]-[3-(1-methyl-piperidin-4-yl)-propyl]-amine]: the Ki was 92 nM. For the molecule `Cc1nc(NCCCC2CCN(C)CC2)ncc1-c1nc2c(C)c(Cl)ccc2[nH]1` [Example 26, [5-(5-Chloro-4-methyl-1H-benzoimidazol-2-yl)-4-methyl-pyrimidin-2-yl]-[3-(1-methyl-piperidin-4-yl)-propyl]-amine], the inhibition constant (Ki) was determined as 13 nM. Regarding `Cc1nc(NCCCC2CCN(C)CC2)ncc1-c1nc2cc(Cl)ccc2[nH]1` [Example 40, [5-(5-Chloro-1H-benzoimidazol-2-yl)-4-methyl-pyrimidin-2-yl]-[3-(1-methyl-piperidin-4-yl)-propyl]-amine], the Ki amounted to 7 nM. Turning to `Cc1ccc2[nH]c(-c3cnc(NCCCC4CCN(C)CC4)nc3C(C)C)nc2c1C` [Example 11, [5-(4,5-Dimethyl-1H-benzoimidazol-2-yl)-4-isopropyl-pyrimidin-2-yl]-[3-(1-methyl-piperidin-4-yl)-propyl]-amine], the Ki was 360 nM. With `CCc1nc(NCCCC2CCN(C)CC2)ncc1-c1nc2c(F)c(F)ccc2[nH]1` [Example 9, [5-(4,5-Difluoro-1H-benzoimidazol-2-yl)-4-ethyl-pyrimidin-2-yl]-[3-(1-methyl-piperidin-4-yl)-propyl]-amine], the Ki is 210 nM. Take `Cc1nc(NCCCC2CCN(C)CC2)ncc1-c1nc2c(F)c(F)ccc2[nH]1` [Example 4, [5-(4,5-Difluoro-1H-benzoimidazol-2-yl)-4-methyl-pyrimidin-2-yl]-[3-(1-methyl-piperidin-4-yl)-propyl]-amine]: the Ki worked out at 11 nM. In the case of `Cc1ccc2[nH]c(-c3cnc(NCCCC4CCN(C)CC4)nc3C3CCC3)nc2c1C` [Example 13, [4-Cyclobutyl-5-(4,5-dimethyl-1H-benzoimidazol-2-yl)-pyrimidin-2-yl]-[3-(1-methyl-piperidin-4-yl)-propyl]-amine], the Ki was found to be 430 nM. Regarding `Cc1nc(NCCCC2CCN(C)CC2)ncc1-c1nc2c(C)cc(F)cc2[nH]1` [Example 3, [5-(6-Fluoro-4-methyl-1H-benzoimidazol-2-yl)-4-methyl-pyrimidin-2-yl]-[3-(1-methyl-piperidin-4-yl)-propyl]-amine], the Ki was 4 nM. Regarding `CCc1nc(NCCCC2CCN(C)CC2)ncc1-c1nc2c(C)cccc2[nH]1` [Example 43, [4-Ethyl-5-(4-methyl-1H-benzoimidazol-2-yl)-pyrimidin-2-yl]-[3-(1-methyl-piperidin-4-yl)-propyl]-amine], the Ki worked out at 110 nM. Consider `Cc1nc(NCCCC2CCN(C)CC2)ncc1-c1nc2ccccc2[nH]1` [Example 22, [5-(1H-Benzoimidazol-2-yl)-4-methyl-pyrimidin-2-yl]-[3-(1-methyl-piperidin-4-yl)-propyl]-amine], for which the Ki turned out to be 110 nM. For `CN1CCC(CCCNc2ncc(-c3nc4c(F)c(F)ccc4[nH]3)c(C3CCC3)n2)CC1` [Example 14, [4-Cyclobutyl-5-(4,5-difluoro-1H-benzoimidazol-2-yl)-pyrimidin-2-yl]-[3-(1-methyl-piperidin-4-yl)-propyl]-amine], the Ki is 1010 nM. Then `CCc1nc(NCCCC2CCN(C)CC2)ncc1-c1nc2c(C)cc(C)cc2[nH]1` [Example 42, [5-(4,6-Dimethyl-1H-benzoimidazol-2-yl)-4-ethyl-pyrimidin-2-yl]-[3-(1-methyl-piperidin-4-yl)-propyl]-amine], with 22 nM; and `CC(C)c1nc(NCCCC2CCN(C)CC2)ncc1-c1nc2c(F)c(F)ccc2[nH]1` [Example 32, [5-(4,5-Difluoro-1H-benzoimidazol-2-yl)-4-isopropyl-pyrimidin-2-yl]-[3-(1-methyl-piperidin-4-yl)-propyl]-amine], with 6110 nM. For the molecule `Cc1cc(C)c2nc(-c3cnc(NCCCC4CCN(C)CC4)nc3C3CC3)[nH]c2c1` [Example 47, [4-Cyclopropyl-5-(4,6-dimethyl-1H-benzoimidazol-2-yl)-pyrimidin-2-yl]-[3-(1-methyl-piperidin-4-yl)-propyl]-amine], the Ki came out at 99 nM. For `Cc1c(F)ccc2[nH]c(-c3cnc(NCCCC4CCN(C)CC4)nc3C3CC3)nc12` [Example 48, [4-Cyclopropyl-5-(5-fluoro-4-methyl-1H-benzoimidazol-2-yl)-pyrimidin-2-yl]-[3-(1-methyl-piperidin-4-yl)-propyl]-amine], the Ki is 140 nM. Regarding `COc1ccc2[nH]c(-c3cnc(NCCCC4CCN(C)CC4)nc3C)nc2c1` [Example 37, [5-(5-Methoxy-1H-benzoimidazol-2-yl)-4-methyl-pyrimidin-2-yl]-[3-(1-methyl-piperidin-4-yl)-propyl]-amine], the Ki amounted to 81 nM. Then `CN1CCC(CCCNc2ncc(-c3nc4c(Cl)cc(Cl)cc4[nH]3)c(C(F)(F)F)n2)CC1` [Example 29, [5-(4,6-Dichloro-1H-benzoimidazol-2-yl)-4-trifluoromethyl-pyrimidin-2-yl]-[3-(1-methyl-piperidin-4-yl)-propyl]-amine], with 35 nM; and `CCCc1nc(NCCCC2CCN(C)CC2)ncc1-c1nc2c(C)c(C)ccc2[nH]1` [Example 18, [5-(4,5-Dimethyl-1H-benzoimidazol-2-yl)-4-propyl-pyrimidin-2-yl]-[3-(1-methyl-piperidin-4-yl)-propyl]-amine], with 2410 nM.

In general, Ki refers to a dissociation constant, usually derived from enzyme kinetics or from competition with a known ligand.
